Data from patent US8956622B2, “Peptidic antagonists of class III semaphorins/neuropilins complexes” (INSERM—Institut National de la Sante et de la Recherche …, priority 2005, dated 2015).

What was measured:
[1] = system: cortical axons collapses triggered by Sema3A; assay: Cortical axons collapses triggered by Sema3A in neocortex explants; type: cell-based, mouse; settings: peptide 10^−8 M, Sema3A 100 ng/ml
Description: The inhibitory axon growth property of Sema 3A is supposed to be linked to its induction capacity of growth cone collapses. To investigate the effect of the pTM-NRP1 peptide on the Sema 3A functional properties, the growth of cortical neurons was analyzed in the presence or not of Sema 3A and of pTM-NRP1 or pTM-NRP1^mut (NRP1 TM with a triple G→V mutation) peptides.
Laminine/Poly-L-Lysine substrates have been made by adding 980 μL of Gey's balanced salt solution (GBSS, SIGMA) to 10 μL laminine (1 mg/ml, SIGMA) and to 10 μL poly-L-Lysine (10 mg/ml, SIGMA). Sterile coverslips have been placed in a big dish and added with substrate (100 μL). Then, ‘sandwiches’ have been prepared by covering each coverslip with a second one. After an incubation for at least 30 min at 37° C. under 5% CO2 in air, ‘sandwiches’ have been opened and each coverslip has been rinsed with deionized water. Explants have been cultured on dried coverslips.
Neocortex fragments prepared from E15 mouse embryos (E1 determined as the first day of embryonic development by detection of vaginal plug) have been transferred on a tissue chopper disk. Tissue have been cut into 200×200 μm by rotating the disk by 90° after the first cut. Cortex cubes have been collected with a spatula and put into culture medium in a Petri dish. Two coverslips with substrate have been placed in a small Petri dish (50 mm diameter, FALCON). After adding 750 μl of culture medium, the coverslips should stay in the incubator for at least 10 minutes. Using a dissecting microscope, forty to fifty cortical explants have been collected in 20 μl culture medium and carefully placed onto the coverslips. After 15 min at room temperature, most explants have adhered to their substrate. 2250 μl of culture medium have been slowly added to each dish. Then, explants cultures have been kept at 37° C. under 5% CO2 in air.
A radial outgrowth could be seen after 18-24 h in culture, and individual fibres and growth cones could have therefore been analyzed. Products tested on growth cones have been directly added in culture medium for 2 h: • purified Sema3A (100 ng/ml) prepared from conditioned medium of HEK293 cells stably expressing Sema3A. The purification was performed by using the anti-Flag system, SIGMA) • pTM-NRP1 (10^−8, 10^−9, 10^−10 and 10^−11 M), • 10^−8M mpTM-NRP1, • 10^−8M pTM-ErbB2w (SEQ ID NO. 18).
After incubation, 4% formaldehyde has been directly added in culture medium (v/v) for 15min. Then the solution has been removed and replaced by 4% formaldehyde for 15 min.

[2] = system: COS-1 cells expressing NRP1 and Plexin-A1; assay: COS cellular collapses triggered by Sema3A; type: cell-based; settings: peptide 10^−9 M, 1 hour pre-incubation, Sema 3A 4 hours
Description: Nevertheless, the artificial expression of NRP1 and Plexin-A1 in COS cells allows Sema 3A to trigger cellular collapses. To investigate the effect of the pTM-NRP1 peptide on the Sema3A functional properties, the shape of COS cells expressing NRP1 and Plexin-A1 was analyzed in the presence or not of Sema 3A and of pTM-NRP1 or pTM-NRP1^mut peptide.
COS-1 cells have been transfected by 1 μg of pBK-CMV (STRATAGENE) plasmids containing NRP1 and plexin-A1 coding sequences (provided by Pr. PUSCHEL; MUNSTER Universitat, Germany) with LIPOFECTAMINE 2000 (IN VITROGEN) according to the manufacturer's instructions in 6-well plates. Stably COS-1 transfected cells have been selected with 0.7% geneticine. Stably transfected COS-1 cells have been cultured on 12-well plates with previously poly-L-lysine-coated glass coverslips. Cells have been then incubated 1 hour with pTM-NRP1 or pTM-NRP1^mut peptide (10^−9M) at 37° C. The culture medium has been then removed and replaced by conditioned medium of HEK cells stably transfected or not with a construction expressing Sema 3A (100 μl/ml D-MEM) for 4 hours at 37° C. Finally, cells have been fixed with 2% formaldehyde for 30 minutes followed by 15 minutes in formaldehyde 4%. For each condition tested, about 400 cells have been analyzed.

NRP1 [3] = biological target: T1, NRP1 (Homo sapiens, UniProt O14786); assay: AP-Sema3A binding to NRP1-expressing COS cells (optical density per cell); settings: peptide 10^−9 M, 1 hour pre-incubation
T1 construct: mutations were introduced into the TM domain of a full length NRP1; expressed in transfected cells; host or cells: COS-1 cells, pBK-CMV plasmid (cDNA provided by Pr. Puschel)
Description: NRP1 expressing COS cells were incubated with AP-Sema3A, a fusion protein of Sema3A and the secreted alkaline phosphatase (BAGNARD et al., 1998).
Wild-type COS cells or NRP1-expressing COS cells (COS-NRP1) were cultured on 12-wells plates on poly-L-lysine-coated glass coverslips (0.005 mg/ml). After one-hour incubation with pTM-NRP1 or pTM-NRP1^mut (10^−9M) in serum-free medium at 37° C., the culture medium was replaced by conditioned medium containing alkaline phosphatase-coupled Sema3A (AP-Sema3A; BAGNARD et al., 1998) obtained from AP-Sema3A stably expressing HEK cells for 90 mn. Conditioned medium without semaphorin served as a control (obtained from non-transfected HEK). Cells were washed three times with PBS and fixed in 4% formaldehyde before transfer in a new dish. After three washes in PBS, the plate was warmed for 50 mn at 65° C. Cells were subsequently incubated with 1 ml of alkaline phosphatase substrate (NBT/BCIP, SIGMA) in the dark. After 45 mn, substrate was removed and glass coverslips were rinsed. Pictures were acquired with a conventional microscope and analyzed with AxioVision LE Zeiss software. For each condition tested, about 60 cells were analyzed to determine binding levels as a function of optical density. Statistical analysis was performed by using a Student's t test.

NRP1 [4] = biological target: T2, NRP1 (Rattus norvegicus, UniProt Q9QWJ9); assay: AP-Sema3A binding to its receptor NRP1 on C6 glioma cells (luminescence); settings: peptide 10^−12 M to 10^−10 M, 1 hour
T2 construct: Rat C6 glioma cells, which express semaphorin receptors; endogenous in cells; host or cells: rat C6 glioma cells
Description: In order to investigate the NRP1 transmembrane domain role in the linkage NRP1-class III semaphorins, the binding of the ligand Sema3A to its receptor NRP1 on glioma cells was measured in the presence or not of the transmembrane domain peptide of NRP1 (pTM-NRP1 peptide; SEQ ID NO. 1) or of a mutated peptide (mpTM-NRP1; SEQ ID NO. 20, […]). These pTM-NRP1 Peptides have been synthesized by automatic peptidic synthesis (Fmoc chemistry, APPLIED SYSTEM), and analyzed by mass spectrometry. Peptides purity has been estimated by RP-HPLC (BECKMAN) as higher than 90%.
Rat C6 glioma cells, which express semaphorin receptors, has been used to determine the binding capacity of AP-Sema3A, a secreted alkaline phosphatase version of Sema 3A (ADAMS et al., 1997, BAGNARD et al., 1998). These cells were grown and plated in MEM medium (GIBCO) with 10% foetal calf serum (PERBIO), glutamine 0.5 mM (GIBCO) and antibiotics: 100 U/ml penicillin and 100 μg/ml streptomycin (SIGMA).
C6 Cells were cultured in 96-well plates and incubated with or without freshly diluted pTM-NRP1 or pTM-NRP1^mut peptides (10^−12 M to 10^−10 M) for 1 hour at 37° C. The culture medium has been then replaced by conditioned medium of HEK cells stably transfected with a construction expressing AP-Sema 3A (ADAMS et al., EMBO J., vol. 16(20), p: 6077-86, 1997; BAGNARD et al., 1998). Conditioned medium from HEK non transfected cells has been used as an internal control. The pTM-NRP1 Peptide has been synthesized by automatic peptidic synthesis (Fmoc chemistry, APPLIED SYSTEM), and analyzed by mass spectrometry. Peptides purity has been estimated by RP-HPLC (BECKMAN) as higher than 90%, the cells have been washed with PBS and incubated with 50 μl of alkaline phosphatase luminescent substrate (AMERSHAM). The luminescence has been read after 15 minutes with MICROLUMAT PLUS system (BERTHOLD TECHNOLOGIES) according to the manufacturer's instructions. Experiments were done 4 times for each peptide.

[5] = system: VEGF165 signalling in C6 cells; assay: VEGF165-induced migration of C6 tumour cell aggregates in 3D matrix (plasma clot); type: cell-based; settings: VEGF165 50 ng/ml, peptide 10^−8 M
Description: NRP1 is a receptor of VEGF (NEUFELD et al., Adv. Exp. Med. Biol., vol. 515, p: 81-90, 2002). We therefore verified that pTM-NRP1 can antagonize VEGF signalling in C6 cells. To this end, C6 tumour cell aggregates prepared as previously described (see BAGNARD et al., 1998; and NASARRE et al., Neoplasia, vol. 7, p: 180-189, 2005) were grown in the 3D matrix (plasma clot) and treated with VEGF165.

T1 sequence (O14786 22-923): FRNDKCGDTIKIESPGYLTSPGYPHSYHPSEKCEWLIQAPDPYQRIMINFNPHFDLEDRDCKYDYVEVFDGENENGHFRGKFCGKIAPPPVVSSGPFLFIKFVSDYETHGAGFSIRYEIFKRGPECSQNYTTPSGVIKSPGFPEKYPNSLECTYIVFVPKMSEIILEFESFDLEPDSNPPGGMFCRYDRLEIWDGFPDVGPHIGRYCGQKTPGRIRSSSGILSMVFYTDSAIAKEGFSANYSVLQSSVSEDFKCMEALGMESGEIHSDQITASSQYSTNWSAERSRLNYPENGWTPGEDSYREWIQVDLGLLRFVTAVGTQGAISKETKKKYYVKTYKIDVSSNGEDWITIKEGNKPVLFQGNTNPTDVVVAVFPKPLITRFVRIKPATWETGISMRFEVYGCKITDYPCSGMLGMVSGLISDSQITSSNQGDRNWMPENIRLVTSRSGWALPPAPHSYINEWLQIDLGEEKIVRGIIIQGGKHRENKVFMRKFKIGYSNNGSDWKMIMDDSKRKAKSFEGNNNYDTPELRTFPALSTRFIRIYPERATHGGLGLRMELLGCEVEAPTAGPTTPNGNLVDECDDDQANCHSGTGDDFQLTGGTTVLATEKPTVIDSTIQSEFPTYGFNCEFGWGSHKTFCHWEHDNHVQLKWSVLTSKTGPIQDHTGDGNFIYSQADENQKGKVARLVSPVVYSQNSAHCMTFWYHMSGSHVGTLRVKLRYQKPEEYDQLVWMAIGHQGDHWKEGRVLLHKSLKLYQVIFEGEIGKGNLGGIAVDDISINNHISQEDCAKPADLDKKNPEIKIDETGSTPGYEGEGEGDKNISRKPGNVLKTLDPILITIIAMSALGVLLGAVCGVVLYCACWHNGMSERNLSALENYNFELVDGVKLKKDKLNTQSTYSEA

Sequence	effect on cortical axons collapses triggered by Sema3A [1]	effect on cellular collapses of COS-1 cells triggered by Sema 3A [2]	binding of AP-Sema3A to NRP1-expressing COS cells (NRP1 [3])	binding of AP-Sema3A to its receptor NRP1 on C6 cells (NRP1 [4])	VEGF165-dependent C6 cells migration out of aggregates [5]
SIISAVVGILLVVVLGVVFGILI [ErbB2 peptide, reference compound]	no effect				
ILITIIAMSALVVLLVAVCVVVLYRKR [pTM-NRP1^mut, reference compound]	did not block	did not block	did not block	did not block	not able to block
